From patent US10555535B2, “Pest control composition and pest control method” (SUMITOMO CHEMICAL COMPANY, LIMITED, priority 2015, dated 2020)

What was measured:
[1] = system: Diabrotica virgifera virgifera; assay: Test Example 13: treated corn seeds, controlling effect on Diabrotica virgifera virgifera larvae; assay type: in vivo
Procedure: (§1) If the effect by the combination of two active ingredients is greater than that of the estimated value E, which is calculated by the Colby's equation as follows, the effect is regarded as synergistic. E=X+Y−X·Y/100 wherein, • E=Controlling effect when using the mixture of the active ingredients A and B at the concentrations m and n (amount of the active ingredient), respectively. • X=Controlling effect when using the active ingredient A at the concentration m (amount of the active ingredient). • Y=Controlling effect when using the active ingredient B at the concentration n (amount of the active ingredient).
In a rotary seed treatment machine (trade name: HEGE11, manufactured by WINTERSTEIGER), corn seeds (variety: yellow dent corn) were treated by smearing treatment using the wettable powder of the present bacterial strain obtained in Formulation Example 13 or clothianidin flowable formulation (47.8% flowable formulation, trade name: NipsIt Inside Insecticide, Valent U.S.A. Corporation), or imidacloprid flowable formulation (48.7% flowable formulation, trade name: Gaucho 600, Bayer CropScience), so that the corn seeds thus treated retain the present bacterial strain, clothianidin or imidacloprid in the amount shown in Table 6.
In a rotary seed treatment machine (trade name: HEGE11, manufactured by WINTERSTEIGER), the corn seeds thus treated with clothianidin or imidacloprid were treated by wet powder coating with a wettable powder of the present bacterial strain as obtained in Formulation Example 13, so that the […] thus treated retain the present bacterial strain and clothianidin or the present bacterial strain and imidacloprid in the amount shown in Table 6.
Newly hatched larvae of Diabrotica virgifera virgifera are released (10 for each stalk of corn) on the 7th day after the seeding, and the number of living Diabrotica virgifera virgifera was counted on the 10th day after the release. Similar procedures were conducted using untreated corn seeds, instead of the treated corn seeds, as described above for the treated compartment (“untreated compartment”).
(§2) Based on the numbers of survivors in the treated compartment and the untreated compartment, the effect in the treated compartment was calculated by the following equation. Controlling effect=100×[(number of survivors in untreated compartment number of survivors in treated compartment)/number of survivors in untreated compartment]

Aphis gossypii = assay: Test Example 12: treated soybean seeds, controlling effect on Aphis gossypii; assay type: in vivo
Procedure: In a rotary seed treatment machine (trade name: HEGE11, manufactured by WINTERSTEIGER), soybean seeds (variety:“Hatayutaka”) were treated by smearing treatment using flowable formulation of the present bacterial strain obtained in Formulation Example 14, flupyradifurone liquid formulation (20.0% liquid formulation, trade name: SIVANTO200, Bayer CropScience), thiacloprid flowable formulation (40.0% flowable formulation, trade name: Sonido, Bayer CropScience), thiamethoxam flowable formulation (47.6% flowable formulation, trade name: Cruiser 5FS, Syngenta Crop Protection LCC), so that the soybean seeds retain the present bacterial strain and the compound in the amount shown in Table 5.
Twenty Aphis gossypii were released on the 14th day after the seeding, and the number of living Aphis gossypii was counted on the 5th day after the release. Similar procedures were conducted using untreated soybean seeds, instead of the treated soybean seeds, as described above for the treated compartment (“untreated compartment”).
as §2, with “compartment−number” for “compartment number”
as §1

Compound: CN/C(=N\[N+](=O)[O-])NCc1cnc(Cl)s1 [Clothianidin, clothianidin]
- Controlling Effect ([1]; corn seeds retaining 0.6 g /Kg seeds): 41.4
- Controlling Effect ([1]; corn seeds retaining 1.2 g /Kg seeds): 64.3

Compound: O=C1C=C(N(Cc2ccc(Cl)nc2)CC(F)F)CO1 [Flupyradifurone, flupyradifurone]
- Controlling Effect (Aphis gossypii; soybean seeds retaining 0.2 g /Kg seeds): 65.9
- Controlling Effect (Aphis gossypii; soybean seeds retaining 0.4 g /Kg seeds): 77.6

Compound: O=[N+]([O-])NC1=NCCN1Cc1ccc(Cl)nc1 [Imidacloprid, imidacloprid]
- Controlling Effect ([1]; corn seeds retaining 2.0 g /Kg seeds): 51.4
- Controlling Effect ([1]; corn seeds retaining 2.5 g /Kg seeds): 62.8

Compound: N#C/N=C1\SCCN1Cc1ccc(Cl)nc1 [Thiacloprid, thiacloprid]
- Controlling Effect (Aphis gossypii; soybean seeds retaining 0.3 g /Kg seeds): 56.9
- Controlling Effect (Aphis gossypii; soybean seeds retaining 0.45 g /Kg seeds): 69.0

Compound: CN1COCN(Cc2cnc(Cl)s2)/C1=N\[N+](=O)[O-] [Thiamethoxam, thiamethoxam]
- Controlling Effect (Aphis gossypii; soybean seeds retaining 0.15 g /Kg seeds): 70.6
- Controlling Effect (Aphis gossypii; soybean seeds retaining 0.25 g /Kg seeds): 78.4
